# Laboratory results reported in patent publication US10292949B2, “Pharmaceutical composition comprising rimeporide for treating diseases associated with insulin resistance and β-cell dysfunction” (Merck Patent GmbH, priority 2008, dated 2019).
# Key:
# Assay type in all cases: in vivo, rat
# [1] = test system: Obese, insulin resistant ZF (fa/fa) rats; assay: Pharmacological Study Report I: deuterated glucose disposal test (2H-GDT); conditions: 4 weeks, Compound A 150 mg/kg gavage twice daily
# Description: Obese, insulin resistant ZF (fa/fa) rats, which are treated from the age of 8-12 weeks, were used as IR model. Rats were housed with a 12-h light/dark cycle and free access to food and water unless otherwise noted. Studies were approved by the Institutional Animal Care and Use Committee. There were a total of 18 animals in the study (8 week-old males, provided by Charles River). Animals were randomized into 3 groups (vehicle group, Compound A group, Compound B group, n=6 per group) based on random glucose level at the beginning of the study: • Group 1: ZF rats (fa/fa) (n=6), compound A (150 mg/kg via gavage) • Group 2: ZF rats (fa/fa) (n=6), compound B (40 mg/kg/day as admixture to the chow) • Group 3: ZF rats (fa/fa) (n=6), vehicle treatment (control chow, vehicle gavage)
# Group 1 and 3 animals were treated with compound A or vehicle (water) for 4 weeks (from age 8-12 weeks) via oral gavage, twice daily. Chow containing compound B was fed to Group 2 ad lib. Group 1 and Group 3 were fed with chow without compound B ad lib.
# Rats underwent a 4 hour fast. […] At t=0, the blood glucose concentrations were determined with a glucometer, and a blood sample was obtained for determination of base line insulin and H2O^18 dilution. […]
# One hundred micro liter aliquots of plasma samples inside the cape of an inverted vial were placed in a heating blocked filled with glass beads at 70° C. overnight and the water distillate inside the vial was collected. The deuterium and oxygen-18 isotope ratios of the blood of plasma samples were determined using a Thermo Finnigan High Temperature Conversion/Elemental Analyzer coupled with a Thermo Finnigan MAT 253 IRMS via a Conflo-III Interface. […] The deuterium isotope abundance is first calculated in δ 2H values relative to the international VSMOW standard, and then transformed to APE by using a calibration curve of standards with known enrichments. The ^2H2O enrichment was calculated for rats at 30 min after the glucose load. ^2H2O enrichment was converted to mmoles by multiplying enrichment by the TBW pool size and dividing by 20 (MW ^2H2O). […]
# obese Zucker fa/fa rats [2] = assay: Pharmacological Study Report II: HbA1c levels; conditions: Mean ± SD; for Base line HbA1c: baseline; for Change in HbA1c: change over the 4 week treatment period; for Week 4 HbA1c: week 4 of treatment
# Description: (§1) Thirty-six obese Zucker fa/fa and six lean Zucker fa/? male rats obtained from Charles River, were housed under normal vivarium conditions on a 12 hour light/dark cycle. The rats were kept two to a cage with food and water available ad lib, except during the weekly, 4 hour fasts. Water continued to be available during these fasts.
# (§2) Compound A corresponds to Cariporide. Compound B corresponds to 2-Methyl-4,5-di-(methylsulfonyl)-benzoyl-guanidine hydrochloride hydrate. Compounds A and B were supplied in powder form by Merck Serono. Drugs were incorporated into a pelleted diet (LabDiet, 5001) by Research Diets, Inc (New Brunswick, N.J.) at concentrations of 0.44 g/kg or 0.88 g/kg of diet to yield approximate doses of 40 or 80 mg/kg. The concentration was calculated based on the assumption that a 300 g rat would eat about 30 g/d of chow. The same chow, but without drug, was fed to rats of both the lean and fa/fa control group animals.
# (§3) One week prior to the start of the study, all rats were weighed. After a 4 hour fast, a blood sample was obtained for the determination of blood glucose, insulin, and glycosylated hemoglobin levels (HbA1c). Animals were then sorted on the basis of these parameters into the groups listed below. Rats were eight weeks of age at the onset of treatment.
# (§4) • 1. ZF rats (fa/fa) (n=6) chow without drug • 2. ZF rats (fa/fa) (n=6) compound A (40 mg/kg/day) • 3. ZF rats (fa/fa) (n=6) compound A (80 mg/kg/day) • 4. ZF rats (fa/fa) (n=6) compound B (40 mg/kg/day) • 5. ZF rats (fa/fa) (n=6) compound B (80 mg/kg/day) • 6. lean Zucker rats (fa/?) (n=6) chow without drug Dosing Regime
# (§5) Treatment appropriate chow was continuously available for 4 weeks except during scheduled 4 h fasts conducted once per week.
# HbA1c level were determined using a DCA 2000 analyzer (Bayer Healthcare LLC, Elkhart Ind.) prior to beginning the study and again at the end of the 4th week treatment period.
# obese Zucker fa/fa rats [3] = assay: Pharmacological Study Report II: random and fasting (4 h) blood glucose and plasma insulin levels; conditions: for Baseline Insulin (fasting) / Change in Insulin (fasting) / Week 4 Insulin (fasting): Mean ± SD; for Change in Insulin (fasting): change over the 4 week treatment period; for Week 4 Insulin (fasting): week 4 of treatment
# Description: as §1, §2, §3, §4, §5
# Both random and fasting (4 h) blood glucose levels were determined using a hand-held glucometer (OneTouch Ultra, Lifescan, Inc. Milapitas, Calif.) on blood obtained from tail capillary samples. Plasma insulin levels were determined by a rat specific ELISA (Ultra Sensitive Rat Insulin ELISA Kit, Crystal Chem, Inc., Chicago, Ill.). The 4 h fast period started at 9 a.m. and ended after a blood draw at 1 p.m.
compound,measurement,setting,value
"CC(C)c1ccc(C(=O)NC(=N)N)cc1S(C)(=O)=O [Compound A, Cariporide]","Insulin sensitivity (% 2H2O recovery per insulin AUC), post-treatment compared to pre-treatment",[1],no significant change
same,"Pancreatic compensation (% 2H2O recovery), before vs after treatment within group","[1]; Compound B 40 mg/kg/day in chow, 90 minute % D2O recovery",exhibited lower pancreatic compensation post-treatment
same,Base line HbA1c,obese Zucker fa/fa rats [2]; 40 mg/kg group,4.0 ± 0.5%
same,Base line HbA1c,obese Zucker fa/fa rats [2]; 80 mg/kg group,3.9 ± 0.4%
same,Change in HbA1c,obese Zucker fa/fa rats [2]; 40 mg/kg,0.4 ± 0.6%
same,Change in HbA1c,obese Zucker fa/fa rats [2]; 80 mg/kg,0.4 ± 0.9%
same,Week 4 HbA1c,obese Zucker fa/fa rats [2]; 40 mg/kg in chow,4.4 ± 0.2%
same,Week 4 HbA1c,obese Zucker fa/fa rats [2]; 80 mg/kg in chow,4.4 ± 0.52%
same,Fasting glucose concentration,"obese Zucker fa/fa rats [3]; 40 mg/kg, after 4 weeks of administration, 4 h fast",increased
same,Fasting insulin relative to the fa/fa vehicle control,"obese Zucker fa/fa rats [3]; 80 mg/kg, 4th week of treatment",significantly decreased
same,Baseline Insulin (fasting),obese Zucker fa/fa rats [3]; 40 mg/kg group,17.6 ± 5.1 ng/mL
same,Baseline Insulin (fasting),obese Zucker fa/fa rats [3]; 80 mg/kg group,15.9 ± 5.5 ng/mL
same,Change in Insulin (fasting),obese Zucker fa/fa rats [3]; 40 mg/kg,0.6 ± 9.6 ng/mL
same,Change in Insulin (fasting),obese Zucker fa/fa rats [3]; 80 mg/kg,-3.4 ± 8.2 ng/mL
same,Week 4 Insulin (fasting),obese Zucker fa/fa rats [3]; 40 mg/kg in chow,18.2 ± 11.8 ng/mL
same,Week 4 Insulin (fasting),obese Zucker fa/fa rats [3]; 80 mg/kg in chow,12.5 ± 7.5 ng/mL
